# According to the supplement of paper PMC11451515:
# Tested on: SEM cells
# Test: cell viability relative to DMSO control; higher = less cytotoxic
# Settings: 48 h
# Procedure, shortened: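 Viability is expressed as a percentage of DMSO wells within each plate, and cell-free wells serve as background. Seeding densities in the 1536-well plates (5 μl) were 500 cells/well for NOMO1 or SEM leukemia cells and 1000 cells/well for P12-Ichikawa. Each line was adapted for at least four passages in each medium. Library compounds in DMSO were pin-dosed at 47 μM to 0.79 nM (11 points, threefold), and CellTiter-Glo One luminescence was read after 48 h at 37°C.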
# [1] = HPLM + 10% dialyzed FBS, 0.000781 µM
# [2] = HPLM + 10% dialyzed FBS, 0.00234 µM
# [3] = HPLM + 10% dialyzed FBS, 0.00702 µM
# [4] = HPLM + 10% dialyzed FBS, 0.0211 µM
# [5] = HPLM + 10% dialyzed FBS, 0.0632 µM
# [6] = HPLM + 10% dialyzed FBS, 0.19 µM
# [7] = HPLM + 10% dialyzed FBS, 0.569 µM
# [8] = HPLM + 10% dialyzed FBS, 1.71 µM
# [9] = HPLM + 10% dialyzed FBS, 5.12 µM
# [10] = HPLM + 10% dialyzed FBS, 15.4 µM
# [11] = HPLM + 10% dialyzed FBS, 46.1 µM
# [12] = RPMI 5 mM glucose + 10% FBS, 0.000781 µM
# [13] = RPMI 5 mM glucose + 10% FBS, 0.00234 µM
# [14] = RPMI 5 mM glucose + 10% FBS, 0.00702 µM
# [15] = RPMI 5 mM glucose + 10% FBS, 0.0211 µM
# [16] = RPMI 5 mM glucose + 10% FBS, 0.0632 µM
# [17] = RPMI 5 mM glucose + 10% FBS, 0.19 µM
# [18] = RPMI 5 mM glucose + 10% FBS, 0.569 µM
# [19] = RPMI 5 mM glucose + 10% FBS, 1.71 µM
# [20] = RPMI 5 mM glucose + 10% FBS, 5.12 µM
# [21] = RPMI 5 mM glucose + 10% FBS, 15.4 µM
# [22] = RPMI 5 mM glucose + 10% FBS, 46.1 µM
# [23] = RPMI 5 mM glucose + 10% dialyzed FBS, 0.000781 µM
# [24] = RPMI 5 mM glucose + 10% dialyzed FBS, 0.00234 µM
# [25] = RPMI 5 mM glucose + 10% dialyzed FBS, 0.00702 µM
# [26] = RPMI 5 mM glucose + 10% dialyzed FBS, 0.0211 µM
# [27] = RPMI 5 mM glucose + 10% dialyzed FBS, 0.0632 µM
# [28] = RPMI 5 mM glucose + 10% dialyzed FBS, 0.19 µM
# [29] = RPMI 5 mM glucose + 10% dialyzed FBS, 0.569 µM
# [30] = RPMI 5 mM glucose + 10% dialyzed FBS, 1.71 µM
# [31] = RPMI 5 mM glucose + 10% dialyzed FBS, 5.12 µM
# [32] = RPMI 5 mM glucose + 10% dialyzed FBS, 15.4 µM
# [33] = RPMI 5 mM glucose + 10% dialyzed FBS, 46.1 µM
SMILES,cell viability [1],cell viability [2],cell viability [3],cell viability [4],cell viability [5],cell viability [6],cell viability [7],cell viability [8],cell viability [9],cell viability [10],cell viability [11],cell viability [12],cell viability [13],cell viability [14],cell viability [15],cell viability [16],cell viability [17],cell viability [18],cell viability [19],cell viability [20],cell viability [21],cell viability [22],cell viability [23],cell viability [24],cell viability [25],cell viability [26],cell viability [27],cell viability [28],cell viability [29],cell viability [30],cell viability [31],cell viability [32],cell viability [33]
O=C(O)C(=O)Nc1cccc(-c2nnn[nH]2)c1,90.2%,98.2%,108%,112%,109%,116%,76.4%,122%,132%,128%,119%,91.3%,112%,114%,104%,106%,106%,75.5%,119%,120%,110%,117%,98.8%,101%,111%,116%,119%,105%,81.5%,119%,132%,107%,102%
Cc1ccc([S+](=O)([O-])NC(=O)NN2CC3CCCC3C2)cc1 (centres undefined),57.6%,102%,89.1%,106%,101%,100%,96.9%,86.1%,58.7%,18.7%,9.78%,55.2%,93.6%,77.9%,94.5%,106%,94.4%,80.8%,76.6%,43.7%,14.9%,9.35%,50.2%,98.7%,84.5%,96.6%,109%,87.8%,84.7%,67.7%,39.3%,26.8%,13.1%
C=C1C(=O)O[C@@H]2[C@H]3O[C@]3(C)CC/C=C(\C)CC[C@@H]12,96.1%,99.9%,122%,104%,116%,115%,98.5%,40.5%,4.45%,3.12%,4%,81.4%,84.9%,103%,93.9%,87.6%,73%,69.5%,19.9%,2.98%,1.9%,2.67%,104%,97%,102%,114%,106%,105%,95.9%,42.4%,3.46%,1.79%,3.03%
CCNC(=O)c1noc(-c2cc(C(C)C)c(O)cc2O)c1-c1ccc(CN2CCOCC2)cc1,90.6%,97.5%,92.4%,103%,31.8%,21.1%,20.2%,20.9%,19.6%,17.3%,14.2%,95.2%,102%,102%,102%,27.1%,21.6%,19.8%,19.6%,19.4%,14.1%,7.66%,101%,95.7%,89.5%,99.5%,36.1%,24.9%,26.4%,22.6%,18.6%,19.2%,11.2%
OCCN1CCN(CCCN2c3ccccc3Sc3ccc(C(F)(F)F)cc32)CC1,85.3%,90%,80.6%,34.4%,104%,110%,7.1%,37.4%,88.7%,49.5%,47.8%,74.8%,89.4%,85.7%,36%,96.2%,122%,7.38%,21.4%,102%,47.6%,34.1%,76.3%,87.2%,86.3%,74.5%,84%,115%,13.7%,31.1%,92.3%,46.3%,35.9%
CN1CCN(CC1)C/2=N/C3=CC=CC=C3NC4=C2C=C(C)S4,91%,105%,114%,106%,102%,119%,115%,114%,117%,119%,105%,99.3%,97.4%,87.4%,88.6%,96.2%,104%,95.5%,94.5%,101%,94.2%,88.6%,95.6%,99.3%,105%,89.4%,97.1%,118%,112%,110%,96%,100%,93.3%
COC(=O)Nc1nc2cc(Sc3ccccc3)ccc2[nH]1,107%,108%,119%,115%,124%,130%,100%,102%,22.6%,24.1%,24.2%,119%,121%,131%,129%,113%,114%,93.2%,91.6%,15.3%,18.6%,18.2%,–,–,–,–,–,–,–,–,–,–,–
CO[C@H]1C[C@H]2OC[C@@]2(OC(C)=O)[C@H]3[C@H](OC(=O)C4=CC=CC=C4)[C@]5(O)C[C@H](OC(=O)[C@H](O)[C@@H](NC(=O)OC(C)(C)C)C6=CC=CC=C6)/C(=C(/[C@@H](OC)C(=O)[C@]13C)C5(C)C)C,61.3%,70.2%,80.6%,15.4%,16.5%,17.7%,16%,15%,18.1%,13.6%,15.8%,89.4%,96.1%,11.1%,9.9%,12.3%,14%,11.2%,15.1%,12.7%,13.2%,13.4%,64%,61.2%,80.6%,11.2%,13.9%,13.5%,14.1%,13.7%,13.2%,11.6%,11.8%
CN1CCC(=C2c3ccccc3CCc3sccc32)CC1,75.4%,85%,107%,94.1%,101%,109%,93.3%,111%,102%,95.8%,51.1%,81.8%,104%,97.4%,106%,96.1%,113%,111%,120%,97.3%,117%,82.1%,82.5%,110%,114%,99.5%,104%,118%,122%,111%,124%,108%,68.3%
Cc1ccc(C)c(OCCCC(C)(C)C(=O)O)c1,83.8%,81.2%,99.6%,85.3%,97.3%,94.9%,92.5%,92.7%,92.6%,98.5%,96.8%,97.1%,87.2%,87.9%,97.9%,94.8%,103%,88.7%,93.9%,103%,103%,92.1%,91%,104%,93.1%,90.7%,104%,91.9%,102%,87.1%,99.5%,108%,95.5%
CON(C)C(=O)N1\N=C(/S[C@]1(CCCN)C2=CC=CC=C2)C3=CC(=CC=C3F)F,23.7%,22.9%,24.5%,28.8%,26.4%,27.4%,30.7%,27%,29.9%,31.7%,24.8%,20.8%,20.4%,20.1%,22.6%,22.8%,21.5%,25.6%,18.8%,21.3%,20.4%,23.8%,21.2%,21.1%,19.9%,21%,21.3%,23.2%,23.2%,24.6%,23.9%,20.6%,21.6%
CNC(=O)c1cc(Oc2ccc(NC(=O)Nc3ccc(Cl)c(C(F)(F)F)c3)c(F)c2)ccn1,83.2%,91.4%,91.1%,78.4%,84.3%,80.6%,39.7%,43.7%,35.3%,25.9%,25.1%,97%,101%,112%,114%,73.8%,89.4%,44.1%,44.1%,31.6%,27.2%,21.8%,86.9%,96.7%,82.1%,84%,61.7%,73.6%,47.3%,31.7%,26.9%,18.8%,20.3%
O=C(O)CCCc1ccc(N(CCCl)CCCl)cc1,96.5%,108%,112%,119%,120%,129%,125%,136%,120%,102%,55.5%,95.7%,91.8%,126%,122%,114%,126%,121%,119%,124%,101%,20.2%,97.4%,113%,120%,111%,128%,129%,133%,122%,137%,113%,36.8%
Clc1ccc(C(Cn2ccnc2)OCc2ccsc2Cl)c(Cl)c1 (centres undefined),67.6%,98.8%,107%,93.1%,114%,110%,90.4%,111%,111%,114%,35.7%,76.4%,95.1%,114%,105%,132%,121%,100%,122%,110%,112%,65.6%,69.3%,110%,110%,117%,128%,124%,101%,109%,118%,105%,55.9%
CN(C)[C@H]\1[C@@H]2[C@@H](O)[C@H]3\C(=C(O)/[C@]2(O)C(=O)\C(=C1O)C(N)=O)C(=O)C4=C(C=CC=C4O)[C@@]3(C)O,100%,95.3%,99.4%,98.8%,98.9%,106%,105%,103%,117%,106%,95.7%,102%,123%,121%,125%,115%,114%,129%,121%,104%,133%,118%,113%,121%,121%,118%,125%,124%,115%,114%,122%,118%,118%
